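Results reflect a 48-hour exposure of cells in 96-well plates to compound at five concentrations. TGI denotes the concentration required for complete inhibition of growth.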
Assays:
Experiment in all cases: growth of human tumour cells (NCI), 48 h
HCC-2998 colon = system: HCC-2998 colon
M14 melanoma = system: M14 melanoma
NCI/ADR-RES ovarian = system: NCI/ADR-RES ovarian
HT29 colon = system: HT29 colon
MDA-N = system: MDA-N
OVCAR-4 ovarian = system: OVCAR-4 ovarian
UACC-257 melanoma = system: UACC-257 melanoma
U251 CNS = system: U251 CNS
SK-MEL-2 melanoma = system: SK-MEL-2 melanoma
MDA-MB-435 = system: MDA-MB-435
SN12C renal = system: SN12C renal
NCI-H23 lung = system: NCI-H23 lung
HCT-116 colon = system: HCT-116 colon
SNB-75 CNS = system: SNB-75 CNS
A498 renal = system: A498 renal
TK-10 renal = system: TK-10 renal
NCI-H522 lung = system: NCI-H522 lung
OVCAR-5 ovarian = system: OVCAR-5 ovarian
NCI-H460 lung = system: NCI-H460 lung
NCI-H226 lung = system: NCI-H226 lung
EKVX NSCLC = system: EKVX NSCLC
SF-295 CNS = system: SF-295 CNS
COLO 205 colon = system: COLO 205 colon
BT-549 breast = system: BT-549 breast
MCF7 breast = system: MCF7 breast
SK-MEL-28 melanoma = system: SK-MEL-28 melanoma
MOLT-4 leukemia = system: MOLT-4 leukemia
HCT-15 colon = system: HCT-15 colon
SF-268 CNS = system: SF-268 CNS
SNB-19 CNS = system: SNB-19 CNS
SK-OV-3 ovarian = system: SK-OV-3 ovarian
MDA-MB-231 breast = system: MDA-MB-231 breast
MALME-3M melanoma = system: MALME-3M melanoma
UACC-62 melanoma = system: UACC-62 melanoma
SK-MEL-5 melanoma = system: SK-MEL-5 melanoma
A549 NSCLC = system: A549 NSCLC
DU-145 prostate = system: DU-145 prostate
CAKI-1 renal = system: CAKI-1 renal
PC-3 prostate = system: PC-3 prostate
IGROV1 ovarian = system: IGROV1 ovarian
RPMI-8226 leukemia = system: RPMI-8226 leukemia
HOP-92 NSCLC = system: HOP-92 NSCLC
786-0 renal = system: 786-0 renal
K-562 leukemia = system: K-562 leukemia
KM12 colon = system: KM12 colon
RXF 393 renal = system: RXF 393 renal
SW-620 colon = system: SW-620 colon
UO-31 renal = system: UO-31 renal
ACHN renal = system: ACHN renal
SR leukemia = system: SR leukemia
OVCAR-3 ovarian = system: OVCAR-3 ovarian
T-47D breast = system: T-47D breast
HL-60(TB) leukemia = system: HL-60(TB) leukemia
LOX IMVI melanoma = system: LOX IMVI melanoma
CCRF-CEM leukemia = system: CCRF-CEM leukemia
HOP-62 NSCLC = system: HOP-62 NSCLC
OVCAR-8 ovarian = system: OVCAR-8 ovarian
SF-539 CNS = system: SF-539 CNS

## O=C(COc1ccc(OCC(=O)N2C(=O)CN(c3ccc(Cl)cc3)C2=S)cc1)N1C(=O)CN(c2ccc(Cl)cc2)C1=S
HCC-2998 colon
  TGI: 51.4 µM
M14 melanoma
  TGI: > 100 µM
NCI/ADR-RES ovarian
  TGI: > 100 µM
HT29 colon
  TGI: 92.2 µM
MDA-N
  TGI: 92.5 µM
OVCAR-4 ovarian
  TGI: > 100 µM
UACC-257 melanoma
  TGI: 93.2 µM
U251 CNS
  TGI: 83.6 µM
SK-MEL-2 melanoma
  TGI: 36.6 µM
MDA-MB-435
  TGI: > 100 µM
SN12C renal
  TGI: 97.9 µM
NCI-H23 lung
  TGI: > 100 µM
HCT-116 colon
  TGI: 32.6 µM
SNB-75 CNS
  TGI: > 100 µM
A498 renal
  TGI: 66.8 µM
TK-10 renal
  TGI: 91.5 µM
NCI-H522 lung
  TGI: 69.2 µM
OVCAR-5 ovarian
  TGI: > 100 µM
NCI-H460 lung
  TGI: 66.1 µM
NCI-H226 lung
  TGI: 90.1 µM
EKVX NSCLC
  TGI: > 100 µM
SF-295 CNS
  TGI: > 100 µM
COLO 205 colon
  TGI: 64.1 µM
BT-549 breast
  TGI: > 100 µM
MCF7 breast
  TGI: > 100 µM
SK-MEL-28 melanoma
  TGI: > 100 µM
MOLT-4 leukemia
  TGI: > 100 µM
HCT-15 colon
  TGI: > 100 µM
SF-268 CNS
  TGI: 97.6 µM
SNB-19 CNS
  TGI: > 100 µM
SK-OV-3 ovarian
  TGI: 90.3 µM
MDA-MB-231 breast
  TGI: 57 µM
MALME-3M melanoma
  TGI: > 100 µM
UACC-62 melanoma
  TGI: 51.5 µM
SK-MEL-5 melanoma
  TGI: 34.5 µM
A549 NSCLC
  TGI: 78 µM
DU-145 prostate
  TGI: > 100 µM
CAKI-1 renal
  TGI: 40.6 µM
PC-3 prostate
  TGI: > 100 µM
IGROV1 ovarian
  TGI: > 100 µM
RPMI-8226 leukemia
  TGI: 75.9 µM
HOP-92 NSCLC
  TGI: 88 µM
786-0 renal
  TGI: 58.6 µM
K-562 leukemia
  TGI: > 100 µM
KM12 colon
  TGI: 43.4 µM
RXF 393 renal
  TGI: 67.5 µM
SW-620 colon
  TGI: > 100 µM
UO-31 renal
  TGI: > 100 µM
ACHN renal
  TGI: > 100 µM

## CC(=O)NC(C)(C)C1CC=C(C)/C(=N\O)C1 (stereo unspecified)
HCC-2998 colon
  TGI: > 100 µM
SR leukemia
  TGI: > 100 µM
M14 melanoma
  TGI: > 100 µM
HT29 colon
  TGI: > 100 µM
OVCAR-3 ovarian
  TGI: > 100 µM
MDA-N
  TGI: > 100 µM
OVCAR-4 ovarian
  TGI: > 100 µM
UACC-257 melanoma
  TGI: > 100 µM
T-47D breast
  TGI: > 100 µM
U251 CNS
  TGI: > 100 µM
MDA-MB-435
  TGI: > 100 µM
SN12C renal
  TGI: > 100 µM
NCI-H23 lung
  TGI: > 100 µM
HL-60(TB) leukemia
  TGI: > 100 µM
HCT-116 colon
  TGI: > 100 µM
SNB-75 CNS
  TGI: > 100 µM
LOX IMVI melanoma
  TGI: > 100 µM
TK-10 renal
  TGI: > 100 µM
NCI-H522 lung
  TGI: > 100 µM
OVCAR-5 ovarian
  TGI: > 100 µM
NCI-H460 lung
  TGI: > 100 µM
CCRF-CEM leukemia
  TGI: > 100 µM
HOP-62 NSCLC
  TGI: > 100 µM
EKVX NSCLC
  TGI: > 100 µM
SF-295 CNS
  TGI: > 100 µM
COLO 205 colon
  TGI: > 100 µM
BT-549 breast
  TGI: > 100 µM
MCF7 breast
  TGI: > 100 µM
SK-MEL-28 melanoma
  TGI: > 100 µM
MOLT-4 leukemia
  TGI: > 100 µM
HCT-15 colon
  TGI: > 100 µM
SF-268 CNS
  TGI: > 100 µM
SNB-19 CNS
  TGI: > 100 µM
SK-OV-3 ovarian
  TGI: > 100 µM
MDA-MB-231 breast
  TGI: > 100 µM
UACC-62 melanoma
  TGI: > 100 µM
SK-MEL-5 melanoma
  TGI: > 100 µM
OVCAR-8 ovarian
  TGI: > 100 µM
A549 NSCLC
  TGI: > 100 µM
DU-145 prostate
  TGI: > 100 µM
SF-539 CNS
  TGI: > 100 µM
PC-3 prostate
  TGI: > 100 µM
IGROV1 ovarian
  TGI: > 100 µM
HOP-92 NSCLC
  TGI: > 100 µM
786-0 renal
  TGI: > 100 µM
K-562 leukemia
  TGI: > 100 µM
KM12 colon
  TGI: > 100 µM
SW-620 colon
  TGI: > 100 µM
UO-31 renal
  TGI: > 100 µM

## CC[N+](C)(CC)CCNC(=O)C(O)(c1ccccc1)c1ccccc1
HCC-2998 colon
  TGI: > 100 µM
SR leukemia
  TGI: > 100 µM
M14 melanoma
  TGI: > 100 µM
NCI/ADR-RES ovarian
  TGI: > 100 µM
HT29 colon
  TGI: > 100 µM
OVCAR-3 ovarian
  TGI: > 100 µM
MDA-N
  TGI: > 100 µM
OVCAR-4 ovarian
  TGI: > 100 µM
UACC-257 melanoma
  TGI: > 100 µM
U251 CNS
  TGI: > 100 µM
SN12C renal
  TGI: > 100 µM
NCI-H23 lung
  TGI: > 100 µM
HL-60(TB) leukemia
  TGI: > 100 µM
HCT-116 colon
  TGI: > 100 µM
SNB-75 CNS
  TGI: > 100 µM
LOX IMVI melanoma
  TGI: > 100 µM
TK-10 renal
  TGI: > 100 µM
NCI-H522 lung
  TGI: > 100 µM
OVCAR-5 ovarian
  TGI: > 100 µM
NCI-H460 lung
  TGI: > 100 µM
CCRF-CEM leukemia
  TGI: > 100 µM
HOP-62 NSCLC
  TGI: > 100 µM
NCI-H226 lung
  TGI: > 100 µM
EKVX NSCLC
  TGI: > 100 µM
SF-295 CNS
  TGI: > 100 µM
COLO 205 colon
  TGI: > 100 µM
BT-549 breast
  TGI: > 100 µM
MCF7 breast
  TGI: > 100 µM
SK-MEL-28 melanoma
  TGI: > 100 µM
MOLT-4 leukemia
  TGI: > 100 µM
HCT-15 colon
  TGI: > 100 µM
SF-268 CNS
  TGI: > 100 µM
SNB-19 CNS
  TGI: > 100 µM
SK-OV-3 ovarian
  TGI: > 100 µM
MALME-3M melanoma
  TGI: > 100 µM
UACC-62 melanoma
  TGI: > 100 µM
SK-MEL-5 melanoma
  TGI: > 100 µM
OVCAR-8 ovarian
  TGI: > 100 µM
A549 NSCLC
  TGI: > 100 µM
DU-145 prostate
  TGI: > 100 µM
SF-539 CNS
  TGI: > 100 µM
CAKI-1 renal
  TGI: > 100 µM
PC-3 prostate
  TGI: > 100 µM
IGROV1 ovarian
  TGI: > 100 µM
RPMI-8226 leukemia
  TGI: > 100 µM
HOP-92 NSCLC
  TGI: > 100 µM
786-0 renal
  TGI: > 100 µM
K-562 leukemia
  TGI: > 100 µM
KM12 colon
  TGI: > 100 µM
RXF 393 renal
  TGI: > 100 µM
SW-620 colon
  TGI: > 100 µM
UO-31 renal
  TGI: > 100 µM
ACHN renal
  TGI: > 100 µM
